{"source": "patent US20220106547A1", "about": "“COMPOSITIONS AND METHODS OF USING PARTIAL GEL LAYERS IN A MICROFLUIDIC DEVICE” (Emulate, Inc., priority 2019, published 2022)", "key": {"human neutrophils": {"test_system": "human neutrophils", "experiment": "Neutrophil recruitment/adhesion in HRV infected Airway Chips", "type": "cell-based", "excerpt": "In one embodiment, the present invention contemplates a method for reducing neutrophil adhesion using an IL-13 inhibitor. In one embodiment, the IL-13 inhibitor is a CXCR2 antagonist. In one embodiment, the IL-13 inhibitor is MK-7123. In one embodiment, the neutrophil adhesion is reduced by approximately seventy-five (75) percent (%). In one embodiment, the IL-13 recruits neutrophils by approximately two-fold.\nThis response was accompanied by a reduction in neutrophil velocity. FIG. 95A, 95B. Also observed was a significant twofold increase in neutrophil recruited between HRV infected chips and infected chips in presence of IL-13 (953 vs 1999; p<0.001). FIG. 95A. […] FIG. 95C."}, "[1]": {"test_system": "primary human hepatocytes", "experiment": "Oxidative stress (MitoSox ROS events) in Liver-Chip hepatocytes", "type": "cell-based", "details": "48 h exposure", "excerpt": "Having shown that at least one embodiment of a Liver-Chip responds to alcohol, we explored the possibility of modeling the progression of ALD, as per the two- or one-hit and second-hit hypothesis, such that simple steatosis induced by alcohol requires a second hit (insult) for progression of ALD to ASH ref^69. Ethanol consumption in humans compromises the intestinal barrier function resulting in increased permeability to intestinal endotoxins, e.g. bacterial lipopolysaccharide (LPS), from the gut to the liver via the portal vein ref^18. Such a permeabalized leaky barrier is considered one of the “second hits” in the progression of ALD to inflammation (ASH) ref^70. Therefore, we tested whether exposure to ethanol and LPS together would worsen the Liver-Chip pathology.\nClinical data have shown the potential of the steatotic liver to repair the steatotic injury following timely abstinence from alcohol or with diet modifications ref^19. Thus, we assessed the responses of the “alcoholic” Liver-Chip to withdrawal from ethanol or ethanol+LPS. Treatment of the Liver-Chip for 48 h with ethanol or ethanol+LPS as above, was followed by a 5 day-long treatment-free “recovery” period. […]\nLive cell staining. […] The stained chips were imaged using either an Olympus fluorescence microscope (IX83) or Zeiss confocal microscope (LSM880), and were de-blurred with Olympus cellSens software. […]"}, "[2]": {"test_system": "bile canaliculi network of primary human hepatocytes", "experiment": "Bile canaliculi (BC) network integrity, MRP-2 staining, Liver-Chip", "type": "cell-based", "details": "0.08% ethanol with or without LPS, 48 h", "excerpt": "A Tri-culture configuration includes primary hepatocytes cultured in the upper channel and primary liver sinusoidal endothelial cells (LSECs) cultured on the opposite side of the membrane, i.e. in the lower channel, along with Kupffer cells. As this design recapitulates elements of the hepatic sinusoid microenvironment ref^17, we were interested in recreating the bile canaliculi (BC) network that is established between neighboring hepatocytes. […] The latter together with the lack of a reproducible, quantitative manner to assess the integrity of the BC network have precluded the use of this clinical endpoint in preclinical studies. […] Based on these findings, we assessed the impact of various ECM scaffold compositions and patterning methods on BC integrity by using quantitative metrics to describe the MRP-2 stained BC network topology (FIG. 82A-E: Table 8. […]\nTo assess the effect of each ECM protocol on BC network formation, we quantified the MRP-2 stained BC network topology (see method sections on IF staining and Image analysis for details). […]\nFor measuring bile canaliculi network properties, MRP-2 stained chips were imaged at 40× using a confocal point-scanning microscope (Zeiss LSM880, Airyscan). […] In each field of view, a z-stack was recorded and combined using maximal intensity projection in order to fully capture the bile canaliculi network. […]"}, "[3]": {"test_system": "primary human hepatocytes", "details": "48 hrs", "description": "To this purpose we used fluorometric assays for biochemical markers of liver function, including albumin, cholesterol, glucose, and glycogen (FIG. 77A-B).\nLiver-Chip culture. Liver-Chip culture was established according to our previously published protocol^74. […] Extracellular matrix sandwiching and composition in the Liver-Chip was optimized to support BC integrity (FIG. 81A-B and method sections below). On the other side of the membrane (the lower chamber of the chip) human primary LSECs (3 million cells/mL) and KCs (0.5 million cells/mL) were seeded to mimic the hepatic sinusoid architecture (FIG. 76A). The two cell compartments were perfused independently, and flow rates were optimized to enable optimal survival and maturation of the different cell types ref^74. In the Quad Liver-Chip experiments, primary human hepatic stellate cells (50,000 cells/mL) were mixed within the collagen coating (FibriCol at 0.5 mg/ml concentration) and add to activated chips and let incubate overnight before hepatocytes seeding on the top of the collagen and HSC mix. The seeded hepatocytes were overlaid with ECM as described in FIG. 81A-B and below, and maintained in William's E Medium (WEM) containing Glutamax (Gibco), ITS+ (Corning), dexamethasone (Sigma-Aldrich), ascorbic acid (Sigma-Aldrich), fetal bovine serum (Sigma-Aldrich), and penicillin/streptomycin (Sigma-Aldrich), and incubated at 37° C., 5% CO2. The vascular channel of the Liver-Chip was maintained with human endothelial media (Emulate, Inc.). Two days after seeding, the Liver-Chips were connected to the Human Emulation System™ (Emulate, Inc.) and both chip channels were perfused at 30 μL/h to provide a continuous supply of fresh medium for the duration of the experiments. At day 5 in culture, the basal medium was modified to DMEM low glucose (1 g/L) supplemented with non-essential amino acids solution (NEAA, 1:200 dilution), glutaMAX (Thermo Fisher) ascorbic acid (Sigma-Aldrich) and penicillin/streptomycin (Sigma-Aldrich). Moreover, ITS+ premix (Corning) was replaced by ITS (GIBCO, 1:500 dilution) in order to achieve a more physiological relevant concentration of insulin, while the FBS supplement was removed. Treatment. […] The Liver-Chip was maintained for 48h in treatment medium and either assayed or allowed to recover for 5 days in basal medium. Optimization of Liver-Chip ECM for BC integrity. We iteratively modified the original ECM coating protocol^74 in order to improve BC formation. Five different combinations of ECM composition and deposition strategy were tested (FIG. 82B), where ECM-A denoted the original protocol. Briefly, for ECM-A, top and bottom channels were coated by incubating with 100 μg/mL rat tail collagen-I (Corning) and 25 μ/mL fibronectin (Gibco) overnight at 37° C. […]"}, "[4]": {"test_system": "primary human hepatocytes", "details": "0.08% and 0.16% pooled vs vehicle"}, "[5]": {"test_system": "primary human hepatocytes", "experiment": "Lipid droplet accumulation (AdipoRed) in ALD Liver-Chip", "details": "ethanol 0.08% or 0.16%, oleic acid 1 μg/ml, up to 48 hrs"}, "lung cells": {"test_system": "lung cells", "experiment": "Viability/differentiation biomarker scoring of airway chip culture conditions", "type": "cell-based", "details": "airway S1 chip culture", "excerpt": "In one embodiment, the present invention contemplates a method comprising scoring at least one cell biomarker and determining a viable and differentiated cell. For example, specific quantitative scores have been assigned to a set of cell biomarkers for viability and differentiation during chip cell culture maturation includes, but is not limited to, cell death (1), ciliation (2) cell attachment (3) cell movement/shape (4), cell overgrowth (5), cell invasion (6). See, FIG. 14.\nAs depicted, the score value increases as the viability/differentiation relevance of the cell biomarker decreases. In one embodiment, the cell death biomarker score value increases in proportion to increased cell death. In one embodiment, the ciliation biomarker score value increases in proportion to deceased ciliation. In one embodiment, the cell attachment biomarker score value increases in proportion to decreased cell attachment. In one embodiment, the cell movement/shape biomarker score value increases with decreased cell movement/shape. In one embodiment, the cell overgrowth biomarker score value increases with increased cell overgrowth. […]\nEach coating can be seen to result in different score values that are independent of location in the cell culture device (e.g., Zoe). […] It is known that retinoic acid (RA) is readily absorbed by most microchip substrates. […]"}, "[6]": {"test_system": "mucociliary bronchiolar epithelium (hAECs)", "experiment": "Effect of IL-13 on goblet cells and cilia beating frequency in Airway Chip", "type": "cell-based, human", "details": "IL-13 100 ng/mL, 7 days", "method": "Cilia beating frequency (CBF) was measured by applying Fourier spectral analysis to high-speed video recordings of the ciliated surfaces. Using an inverted phase contrast microscope, the ciliated surfaces were recorded at 190-200 frames per second and at a resolution of 512 by 512 pixels, which corresponded to a field of view of 166 by 166 μm^2 (0.32 μm per pixel). Cilia beating was recorded at multiple randomly chosen fields of view (FOV) for each chip.\nA first step of video processing was to identify regions of ciliary beating by computing a normalized standard deviation of an intensity value for each pixel across all frames. […] FIG. 104A-B.\nIn a further step, areas with ciliary motion were thresholded and the movie field of view was divided into 289 windows (ca. 10×10 μm^2 in size). For each window, a random set comprising 70% of all pixels with detected motion was further analyzed to detect the dominant beat frequency. For each sampled pixel, ciliary beat frequency was determined from a time-dependent fluctuation of pixel brightness reflecting the periodicities of the ciliary movement. A bandwidth filter (e.g., approximately 1 to 30 Hz) was applied to each pixel signal to remove noise. […] Thus, for each FOV, the number of measured CBFs was determined by the number of windows with usable signals (e.g., 289 windows). […]"}}}
{"molecule": "CC[C@@H](Nc1c(Nc2cccc(C(=O)N(C)C)c2O)c(=O)c1=O)c1ccc(C)o1", "note": "[MK-7123, reference compound]", "values": [{"measurement": "reduction of neutrophil adhesion", "setting": "human neutrophils; stated as embodiment, MK-7123 10 μM in FIG. 95", "value": "~75", "unit": "%"}]}
{"molecule": "CCO", "note": "[ethanol]", "values": [{"measurement": "ROS events per nuclei", "setting": "[1]", "value": "dose-dependent increase in ROS events"}, {"measurement": "dilated BC (cholestatic) areas", "setting": "[2]", "value": "areas of markedly dilated BCs"}, {"measurement": "glycogen storage in cell lysates", "setting": "[3]; 0.08% ethanol", "value": "trend for increase"}, {"measurement": "albumin release", "setting": "[3]", "value": "not affected"}, {"measurement": "cholesterol levels", "setting": "[3]; human-relevant BACs, effluent and cell lysates", "value": "significant increase in cholesterol levels"}, {"measurement": "glucose release", "setting": "[3]; except toxic concentrations above 0.32%", "value": "no changes were detected"}, {"measurement": "downregulated DE genes", "setting": "[4]", "value": 36}, {"measurement": "upregulated DE genes", "setting": "[4]", "value": 87}, {"measurement": "differentially expressed (DE) genes", "setting": "[4]; adj. p<0.05, |log2FC|>1", "value": 123}, {"measurement": "steatosis (hepatic lipid accumulation)", "setting": "[5]", "value": "steatosis was induced"}]}
{"molecule": "CCCCCCCC/C=C\\CCCCCCCC(=O)O", "note": "[oleic acid, reference compound]", "values": [{"measurement": "steatosis (hepatic lipid accumulation)", "setting": "[5]", "value": "steatosis was induced"}]}
{"molecule": "Bovine Serum Albumin (BSA): membrane coating layer of bovine serum albumin", "values": [{"measurement": "cell viability and differentiation (scoring / morphological assessment)", "setting": "lung cells", "value": "found to support the most viable and differentiated cells"}]}
{"molecule": "IL-13: Th2 cytokine IL-13", "values": [{"measurement": "reduction in cilia beating frequency", "setting": "[6]", "value": 14.4, "unit": "%"}, {"measurement": "goblet cells, total area", "setting": "[6]; 16.5% without IL-13", "value": 50.3, "unit": "%"}, {"measurement": "neutrophil recruited", "setting": "human neutrophils; HRV infected chips in presence of IL-13, 953 in HRV infected chips alone", "value": 1999}]}
